Tests used:
[1] = target: T1, Signal transducer and activator of transcription 3 (Homo sapiens, UniProt P40763); assay: Inhibition of IL-6 stimulated STAT3 phosphorylation in human PBMC preincubated with compound for 10 to 15 mins followed by IL-6 stimulation and measured after 15 mins by ELISA analysis
[2] = target: T1, Signal transducer and activator of transcription 3; assay: Inhibition of IL-23 stimulated STAT3 […] in human naive T cell preincubated with compound for 10 to 15 mins followed by IL-23 stimulation and measured after 15 mins by ELISA analysis

T1 sequence (P40763 whole entry): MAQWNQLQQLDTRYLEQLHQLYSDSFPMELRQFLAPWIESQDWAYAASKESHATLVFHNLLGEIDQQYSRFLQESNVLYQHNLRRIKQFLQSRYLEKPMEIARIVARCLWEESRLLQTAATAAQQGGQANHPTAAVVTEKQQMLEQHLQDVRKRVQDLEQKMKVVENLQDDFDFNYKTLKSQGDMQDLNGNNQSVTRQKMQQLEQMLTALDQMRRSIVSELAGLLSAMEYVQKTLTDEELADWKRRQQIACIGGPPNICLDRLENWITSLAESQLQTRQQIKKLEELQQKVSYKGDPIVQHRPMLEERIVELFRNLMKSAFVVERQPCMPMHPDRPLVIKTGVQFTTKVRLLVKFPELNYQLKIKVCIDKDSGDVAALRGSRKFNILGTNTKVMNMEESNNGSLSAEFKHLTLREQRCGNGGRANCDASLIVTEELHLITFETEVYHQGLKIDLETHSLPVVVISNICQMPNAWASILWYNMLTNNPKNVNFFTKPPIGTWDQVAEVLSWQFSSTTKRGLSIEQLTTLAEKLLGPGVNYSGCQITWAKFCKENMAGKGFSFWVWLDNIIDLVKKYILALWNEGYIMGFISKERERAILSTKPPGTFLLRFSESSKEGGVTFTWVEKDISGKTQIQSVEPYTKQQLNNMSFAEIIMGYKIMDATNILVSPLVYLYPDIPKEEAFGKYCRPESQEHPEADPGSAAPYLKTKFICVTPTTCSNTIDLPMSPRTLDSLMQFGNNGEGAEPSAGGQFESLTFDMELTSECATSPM

- IC50 [1]: 44 nM
- IC50 [2]: 20 nM
SMILES: CCS(=O)(=O)N1CC(CC#N)(n2cc(-c3ncnc4[nH]ccc34)cn2)C1 [LY-3009104]
